Values of other authors as cited in PMC9347208, “Pharmacological activation of the hERG K^+ channel for the management of the long QT syndrome: A review” (Journal of Arrhythmia, 2022).
Entries after “also recorded” stand apart in the source; their conditions may differ. Like-named read-outs stand apart in the source and are kept apart here.

Legend:
hERG channel [1] = conditions: for Type: type of hERG activator by main mechanism of action, ref [40]
hERG channel mutants = test system: hERG channel mutants; set-up: method as in column Ref. of the table row; conditions: mutation named in the value
IKs = test system: IKs; set-up: method as in PMID 15976038, PMID 29050968, PMID 19892732, PMID 31877041, PMID 23840331; conditions: recorded from isolated guinea pig cardiomyocytes; ref [22], [41], [52], [53], [59], [60]
[2] = test system: APD, EADs, and QT prolongation; set-up: method as in PMID 15976038, PMID 29050968, PMID 19892732, PMID 31877041, PMID 23840331; conditions: 3 μM; caused by high‐affinity inhibitor dofetilide; ref [22], [41], [52], [53], [59], [60]
E637K hERG mutant = test system: E637K hERG mutant; set-up: method as in PMID 15976038, PMID 29050968, PMID 19892732, PMID 31877041, PMID 23840331; conditions: ref [22], [41], [52], [53], [59], [60]
[3] = test system: ventricular repolarisation (APD, QT interval)
ICa,L [4] = conditions: recorded from guinea pig cardiomyocytes
[5] = test system: perfused canine atrial preparations; set-up: method as in PMID 15976038, PMID 29050968, PMID 19892732, PMID 31877041, PMID 23840331; conditions: ERP abbreviation and TDR amplification, ref [22], [41], [52], [53], [59], [60]
SQT1 model = test system: SQT1 model; set-up: method as in column Ref. of the table row; conditions: by creating the substrate for reentry
hERG channel [6] = test system: hERG channel
ICa,L [7] = test system: ICa,L; set-up: method as in PMID 29050968, PMID 18042732; conditions: ventricular cardiomyocytes isolated from rabbit hearts; ref [41], [83]
Ito = test system: Ito; set-up: method as in PMID 29050968, PMID 18042732; conditions: ventricular cardiomyocytes isolated from rabbit hearts; ref [41], [83]
Kv1.5 (IKur) = conditions: 50 μM; ref [19], [21]
[8] = test system: Dofetilide‐induced arrhythmias; conditions: after pretreatment; ref [19], [21]
hERG channel [9] = conditions: astemizole, sertindole, dofetilide, and cisapride, radioligand assays, ref [19] and column References of the table row
[10] = test system: neuronal Kv12.1 ether‐à‐ go‐go‐gene‐like (elk3) channel; set-up: method as in PMID 24041920, PMID 25809254, PMID 18452879, PMID 29050968, PMID 25191697; conditions: ref [16], [27], [32], [41], [48], [58], [61], [70], [84]
guinea pig hearts = conditions: Langendorff‐perfused Guinea pig hearts, high concentrations; ref [16], [27], [32], [41], [48], [58], [61], [70], [84]
hERG1a and hERG1b = test system: hERG1a and hERG1b; set-up: method as in column Ref. of the table row
hCav1.2 (ICa,L) = test system: hCav1.2 (ICa,L); set-up: method as in column Ref. of the table row
hKir2.1 (IK1) = conditions: ref [19], [29]
hKv4.3 (Ito) = conditions: ref [19], [29]
IKr = conditions: native human cardiomyocytes from LQT1 patients; ref [19], [29]
[11] = recorded from isolated guinea pig cardiomyocytes, ref [22], [41], [52], [53], [59], [60]
[12] = suggested, as no change to AP amplitude and diastolic potential of guinea pig cardiomyocytes

In the case of `O=C(O)c1ccccc1Nc1ccc(CCc2ccc(Cl)c(Cl)c2)cc1` [PD‐118057], the Type (hERG channel [1]) is listed as 4, the “Channel selectivity: effect on INa” value (INa; [11]) is listed as “No effect on INa, ICa‐L, IK1, and IKs recorded from isolated guinea pig cardiomyocytes” and the “Molecular determinants of activity: effect of hERG mutations on agonist activity” value (hERG channel mutants) is listed as “Mutation to F619 and L646 suppresses agonist activity; also recorded: Mutation to C643 and M645 enhances drug activity”. The “Channel selectivity: effect on IKs” value (IKs) was “No effect on INa, ICa‐L, IK1, and IKs recorded from isolated guinea pig cardiomyocytes”, the “Channel selectivity: effect on IK1” value (IK1; [11]) was “No effect on INa, ICa‐L, IK1, and IKs recorded from isolated guinea pig cardiomyocytes” and the “Reported benefit for LQTS: diLQTS” value [2] was “prevents APD, EADs, and QT prolongation”. For the same compound, the “Reported benefit for LQTS: cLQTS, rescue of E637K hERG mutant” value (E637K hERG mutant) was “Failed to rescue”, the “Effect on PRRP and QT interval” value ([3]; ref [21], [60], [61]) was “increase the PRRP and shorten the QT interval but potentially to the point of triggering arrhythmia” and the “Channel selectivity: effect on cardiac ICa,L” value (ICa,L [4]) was “No effect on INa, ICa‐L, IK1, and IKs recorded from isolated guinea pig cardiomyocytes”. For the same compound, the “Reported associated pro‐arrhythmic risk: arrhythmia provocations” value [5] was “Increases arrhythmia provocations” and the “Reported associated pro‐arrhythmic risk: SQT1 manifestations” value (SQT1 model) was “Recapitulates the electrophysiological and arrhythmic manifestations of SQT1”.
For `O=C(O)c1cccnc1Nc1ccc2c(c1)CN(c1ccc(Cl)c(Cl)c1)C2` [PD‐307243], the “Reported benefit for LQT: activator effect in presence of BeKm‐1” value (hERG channel [6]; ref [41], [83]) is given as “potentiated”, the “Reported benefit for LQT: diLQTS, interaction with dofetilide” value (hERG channel [6]; ref [41], [83]) is given as “Dofetilide prevents the activator effect of PD and unmasks its current suppressing effect” and the “Channel selectivity: effect on recombinant hNav1.5 (INa)” value (hNav1.5 (INa)) is given as “No effect”. For the same compound, the “Channel selectivity: effect on ICa,L” value (ICa,L [7]) was “Activates”, the “Channel selectivity: effect on Ito” value (Ito) was “no effect” and the “Channel selectivity: effect on recombinant hKCNQ1‐KCNE1 (IKs)” value (hKCNQ1‐KCNE1 (IKs)) was “No effect”.
In the case of `O=C(COc1ccc2ccccc2c1Br)Nc1cccnc1` [VU0405601], the “Channel selectivity: effect on recombinant cardiac Kv1.5 (IKur)” value (Kv1.5 (IKur)) is given as “No or small effect of 50 μM on recombinant cardiac Kv1.5 (IKur), Nav1.5 (INa), and KCNQ1 + KCNE1 (IKs) channels”, the “Reported benefit for LQT: diLQTS, dofetilide‐induced arrhythmias” value [8] is given as “reduced” and the “Channel selectivity: effect on recombinant Nav1.5 (INa)” value (hNav1.5 (INa); 50 μM, ref [19], [21]) is given as “No or small effect of 50 μM on recombinant cardiac Kv1.5 (IKur), Nav1.5 (INa), and KCNQ1 + KCNE1 (IKs) channels”. The “Allosteric effect on the binding of hERG blockers” value (“Allosteric effect on the binding” for short) (hERG channel [9]) was “negative allosteric modulators; also recorded: weaken interactions” and the “Channel selectivity: effect on recombinant KCNQ1 + KCNE1 (IKs)” value (hKCNQ1‐KCNE1 (IKs); 50 μM, ref [19], [21]) was “No or small effect of 50 μM on recombinant cardiac Kv1.5 (IKur), Nav1.5 (INa), and KCNQ1 + KCNE1 (IKs) channels”.
In the case of `O=C(Nc1cc(C(F)(F)F)ccc1O)Nc1cc(C(F)(F)F)ccc1O` [NS1643, 1,3‐bis‐(2‐hydroxy‐5‐trifluoromethyl‐phenyl)‐urea], the “Potency in reducing hERG channel inactivation” value (hERG channel [1]; ref [16], [31]) is listed as “modest potency compared with ICA‐105574”, the Type (hERG channel [1]) is listed as 1, 2, and possibly 3 and the “Channel selectivity: effect on neuronal Kv12.1 (elk3) channel” value [10] is listed as “Inhibitor”. For the same compound, the “Reported associated pro‐arrhythmic risk: ventricular tachycardia and fibrillation” value (guinea pig hearts) was “Induces ventricular tachycardia and ventricular fibrillation”, the “Channel selectivity: effect on cardiac INa” value (INa; [12]) was “Suggested absence” and the “Reported benefit for LQT: diLQTS, effects of hERG inhibition by drug inhibitors” value (hERG channel [6]; 10 μM, inhibitors e.g. E‐4031, dofetilide, moxifloxacin, ref [16], [27], [32], [41], [48], [58], [61], [70], [84]) was “attenuate electrophysiological effects associated with hERG inhibition by various drug inhibitors; also recorded: did not reverse the inhibition to the control levels”. The “Channel selectivity: effect on cardiac IK1” value (IK1; [12]) was “Suggested absence”, the “Effect against Nav1.5 channels” value (hNav1.5 (INa); ref [32]) was “inhibitory effects” and the “Channel selectivity: sensitivity of hERG1a versus hERG1b” value (hERG1a and hERG1b) was “Differential sensitivity”. For the same compound, the “Efficacy against triggered activity” value ([3]; low concentration, in vitro and ex vivo experimental models, ref [32]) was “effective against triggered activity” and the “TDR and instability of the QT interval” value ([3]; only in the presence of an I Ks inhibitor, ref [16]) was “markedly amplify”.
In the case of `O=C(COc1ccc(C(=O)c2ccccc2)cc1)Nc1cccnc1` [ML‐T531], the “Channel selectivity: effect on recombinant hCav1.2 (ICa,L)” value (hCav1.2 (ICa,L)) is listed as “No effect”, the “Channel selectivity: effect on recombinant hKir2.1 (IK1)” value (hKir2.1 (IK1)) is listed as “No effect” and the “Channel selectivity: effect on recombinant hKv4.3 (Ito)” value (hKv4.3 (Ito)) is listed as “No effect”. For the same compound, the “Channel selectivity: effect on recombinant hNav1.5 (INa)” value (hNav1.5 (INa)) was “No effect”, the “Allosteric effect on the binding” value (hERG channel [9]) was “Negative effect on the binding” and the “Allosteric effect on the binding” value (hERG channel [9]; listed as MLT‐531) was “negative allosteric modulators”. For the same compound, the “Reported benefit for LQT: cLQTS, IKr” value (IKr) was “IKr increase” and the “Channel selectivity: effect on hKCNQ1‐KCNE1 channels (IKs)” value (hKCNQ1‐KCNE1 (IKs); 10 μM, ref [19], [29]) was “minor suppressive effect”.
